The results in this text go back to patent US20050008623A1, “In vitro production of dendritic cells from CD14+ monocytes” (priority 2001, published 2005).

Common to all, as to assay type: cell-based, human
Test [1] has as its system Langerhans cells generated in vitro. The test can be described thus: Chemoattraction and migration of Langerhans cells of Example 6.
Test [2] concerns dendritic cells generated in vitro (CCR6 receptor). Briefly: Chemoattraction of undifferentiated immature dendritic cells (CCR6 functionality). The conditions noted are these: day 6 cells of Example 4. Here is the method:
The culture medium is initially supplemented with a third cytokine, namely the cytokine IL-13 at a rate of 10 ng/ml. Before 2 days of culture at the most, the same culture medium devoid of IL-13 is added up to day 6 of culture.

Another test relates to Langerin+LC population. The test can be described thus: Maturation marker DC-LAMP expression after TNFα, Langerhans cells. The conditions noted are these: 200 IU/ml for 48 hours from day 6. Here is the method:
(§1) On day 6, the cytokine TNFα is added at a rate of 200 IU/ml for 48 h.
(§2) The advantage of a substantially homogeneous dual population of LC and IDC is the possibility of interacting with both cell types as in the in vivo situation. To study the maturation pathways of LC and IDC generated in vitro, we analyzed the intracytoplasmic expression of maturation marker DC-LAMP on both LC and IDC. To this end, the experiments were performed according to the following protocol: • 2.10^5 cells of a mixed population comprising LC and IDC generated in vitro are incubated successively with: • either 5 microliters of anti-DC-SIGN antibody (2 micrograms/milliliter) or 10 microliters of anti-Langerin antibody (2 micrograms/milliliter), for 30 minutes at 4° C.; • 10 microliters of anti-mouse goat antibody coupled with the fluorochrom FITC (Fluorescein IsoThioCyanate) at the concentration of 1 microgram/milliliter for 30 min at 4° C.; • blocking with normal mouse serum diluted to 1/20; • 10 microliters of anti-DC-LAMP antibody coupled with fluorochrom PE (PhycoErythrin) at the concentration of 1 microgram/milliliter for 30 minutes at 4° C. • the results are expressed as the percentage of LC which are DC-LAMP positive and IDC which are DC-LAMP positive. […]

The next test concerns IDC (DC-SIGN+). Briefly: Maturation marker DC-LAMP expression after TNFα, interstitial dendritic cells. The conditions noted are these: 200 IU/ml for 48 hours from day 6. Here is the method: as §1, §2
Test [3] deals with dendritic cells generated in vitro (CCR7 receptor). Briefly: Chemoattraction of activated mature dendritic cells (CCR7 functionality). The conditions noted are these: activated mature cells of Example 8 (TNFα more than 20 hours). Here is the method:
Within the framework of the invention, the culture medium is initially supplemented with a third cytokine, namely the cytokine IL-13 at a rate of 10 ng/ml. The culture is carried out up to day 6, irrespective of the incubation time of the cytokine IL-13.

With “IL-1β: cytokine under whose effect Langerhans cells migrate”, the “migration of Langerhans cells” value in test [1] is recorded as “migrating”.

Turning to “MIP-3α: ligand of the specific receptor CCR6”, in test [2], the “chemoattraction of dendritic cells” value is listed as “strongly chemoattracted”. In addition, the “chemoattraction of Langerhans cells” value in test [1] is “capable of being chemoattracted”.

Consider TNFα, for which the “percentage of LC which are DC-LAMP positive” value in the test on Langerin+LC population was 50%. For the same molecule, in the test with IDC (DC-SIGN+), the “expression of maturation marker DC-LAMP on IDC” value was “do not express”.

B1: MIP-3β: ligand of the specific receptor CCR7 (protein, UniProt Q99731 22-98, looked up)
C-C motif chemokine 19: GTNDAEDCCLSVTQKPIPGYIVRNFHYLLIKDGCRVPAVVFTTLRGRQLCAPPDQPWVERIIQRLQRTSAKMKRRSS
For B1, the “chemoattraction of dendritic cells” value in test [3] is “strongly chemoattracted”.
